Assays:
[1] = biological target: benzodiazepine (BZ) receptor; experiment: in vitro displacement: prevention of the binding of the compound of formula I; design: species or system rat (male, Sprague-Dawley); settings: rat cerebral cortical tissue; given in words only
[2] = system: benzodiazepine (BZ) receptor; experiment: in vitro benzodiazepine receptor binding of the compound of formula I (saturation, rat cerebral cortical tissue); design: species or system rat (male, Sprague-Dawley); settings: for Bmax / Kd: 60 min incubation, pH 7.7; for Ratio (Specific/nonspecific): concentration of the compound of formula I at Kd, nonspecific with 10^-6 M clonazepam
[3] = system: BZ receptors in the brain; experiment: in vivo binding of the compound of formula I in mouse cerebral cortex; design: species or system mouse (male, ICR); settings: mice, tail vein injection
Protocol: In vivo binding of the compound of formula I was determined according to the following procedures. Mice (male, 30 g ICR, Hilltop Farms) were injected via the tail vein with the compound of formula I. Ten or 30 minutes later, the mice were killed, the cerebral cortices of the brains were dissected solubilized, and the radioactivity was determined using standard methods. In order to determine nonspecific binding, some mice were pretreated with 5 mg/kg clonazepam (30 min ip). Specific/nonspecific binding ratios in cerebral cortex were about 2 at 10 minutes. The tissues in these tests were assayed directly without first homogenizing and washing them to reduce nonspecific binding. Therefore, the ratios were true in vivo ratios. Radioactivity was low and specific binding was negligible at 30 minutes.

CCOC(=O)c1ncn2c1CN(C)C(=O)c1cc(F)ccc1-2 [Ethyl-8-fluoro-5,6-dehydro-5-methyl-6-oxo-4H-imidazol-[1,5-a]-1,4[benzodiazepine-3-carboxylate]]
Ki, prevention of binding of the compound of formula I [1]: in the nM range

O=C1CN=C(c2ccccc2Cl)c2cc([N+](=O)[O-])ccc2N1 [clonazepam]
Ki, prevention of binding of the compound of formula I [1]: in the nM range

[3H]c1cc(Cl)cc2c1C1=C(CN=C2c2ccccc2Cl)C(=O)NC1 [compound of formula I, 8-Chloro-6-(2-chlorophenyl)-1,4-dihydropyrrolo-[3,4-d][2]-10-t-benzazepin-3(2H)-one]
Bmax ([2]; 0 °C): 1.36 × 10^-10 mol/mg wet weight | Kd ([2]; 0 °C): 0.18 ± 0.05 nM | Ratio (Specific/nonspecific) ([2]; 0 °C): 12 | specific to nonspecific ratios (FIG. 1) ([2]; 37 °C, 0.01 to 10 nM, over a relatively large range of concentrations): high | Bmax ([2]; 37 °C): 1.22 × 10^-10 mol/mg wet weight | Kd ([2]; 37 °C): 0.82 ± 0.03 nM | Ratio (Specific/nonspecific) ([2]; 37 °C): 4 | affinity and selectivity for BZ receptors in the brain ([2]; summary statement): high affinity and is a selective ligand for BZ receptors in the brain | Specific/nonspecific binding ratio in cerebral cortex ([3]; 10 minutes, nonspecific: 5 mg/kg clonazepam (30 min ip), tissue not homogenized or washed): about 2 | Radioactivity in cerebral cortex ([3]; 30 minutes): low | specific binding in cerebral cortex ([3]; 30 minutes): negligible

Cc1ncc2n1-c1ccc(Cl)cc1C(c1ccccc1F)=NC2 [midazolam]
Ki, prevention of binding of the compound of formula I [1]: in the nM range

— US4869895A, “Radiolabeled benzazepine” (Hoffmann-La Roche Inc., priority 1988, dated 1989)
